Laboratory results as given in the NIST ThermoML archive (doi:10.1021/je700598v).

Assay: cn = amount concentration of the nth substance listed, in mol/dm3
Conditions: 101 kPa, Liquid; for viscosity: Capillary tube (Ostwald / Ubbelohde) method; for mass density: Pycnometric method; for binary diffusion coefficient: Taylor dispersion method

OC[C@H]1O[C@@H]2O[C@H]3[C@H](O)[C@@H](O)[C@@H](O[C@H]4[C@H](O)[C@@H](O)[C@@H](O[C@H]5[C@H](O)[C@@H](O)[C@@H](O[C@H]6[C@H](O)[C@@H](O)[C@@H](O[C@H]7[C@H](O)[C@@H](O)[C@@H](O[C@H]8[C@H](O)[C@@H](O)[C@@H](O[C@H]9[C@H](O)[C@@H](O)[C@@H](O[C@H]1[C@H](O)[C@H]2O)O[C@@H]9CO)O[C@@H]8CO)O[C@@H]7CO)O[C@@H]6CO)O[C@@H]5CO)O[C@@H]4CO)O[C@@H]3CO [γ-cyclodextrin] + O
Conditions	binary diffusion coefficient, 298.15 K [m2/s]	binary diffusion coefficient, 310.15 K [m2/s]	mass density, 298.15 K [kg/m3]	mass density, 310.15 K [kg/m3]	viscosity, 298.15 K [mPa·s]	viscosity, 310.15 K [mPa·s]
c1 = 0.00186	–	–	896.2	697	0.9975	0.9938
c1 = 0.002	3.57e-10	4.8e-10	–	–	–	–
c1 = 0.004979	–	–	906.1	708.2	0.999	0.9949
c1 = 0.005	3.55e-10	4.7e-10	–	–	–	–
c1 = 0.007923	–	–	919.2	717.2	1.001	0.997
c1 = 0.008	3.53e-10	4.61e-10	–	–	–	–
c1 = 0.009981	–	–	927	723.4	1.002	0.9984
c1 = 0.01	3.52e-10	4.53e-10	–	–	–	–
